We go through one molecule from patent US6355677B1, “Adrenoleukodystrophy treatments and drug screening” (The Johns Hopkins University, priority 1998, dated 2002).

“Also recorded” adds a separate entry of the source.

For assay [1], the system named is ALDP. The assay can be described thus: ALDP stabilization, immunofluorescence with anti-ALDP antibody. Particulars: X-ALD fibroblasts with destabilizing missense mutations (A626T, R660W), 5 mM for up to 10 days. Format: cell-based, human.
The subject of assay [2] is ALDP. The assay can be described thus: Semi-quantitative RT-PCR, human primary fibroblasts. It is filed as cell-based. Particulars: normal fibroblasts, 5 mM, 2 days. On the procedure:
(§1) Semi-quantitative RT-PCR was done on the mRNA isolated from these cells (FIG. 1). […] In addition, the expression of acyl-CoA oxidase (AOX), the rate-limiting enzyme in VLCFA β-oxidation, was not affected. Although previous studies have reported that ALDR mRNA was not detectable in fibroblasts by either northern or RT-PCR analyses, those RT-PCR studies used about 66 ng of CDNA; we used about 250 ng of cDNA.
(§2) Total RNA from tissue culture cells (10^6-10^7 cells/sample) was isolated using TRizol Reagent™ (Life Technologies), treated with DNase I (100-200 units in 40 mM HC, 10mM NaC, 6 mM MgCl2, pH 7.3), incubated at 37° C. for 30 min, extracted with pheno/chloroform, and precipitated with isopropanol. cDNA was generated using MMLV reverse transcriptase (RT) (Life Technologies). PCR was done in the linear range of amplification (determined for each primerpair-cDNA combination). For each cDNA sample, a ‘cocktail’ was prepared, containing PCR buffer (Promega), 200 µM of each DNTP, 1.5 mM MgCl2, 250 ng cDNA, 0.25 U of Taq polymerase (Promega) and […]. The ‘cocktail’ was divided into separate tubes containing cDNA specific primers.
(§3) The PCR primers used are listed below. In the parentheses, h indicates human and m, mouse; this is followed by the gene name, product size and annealing temperature. For primer sequences, F is forward and R is reverse. (hALD, 249, 64° C.) F: 5′-[…]-3′, R: 5′-[…]-3′; (mALD, 526, 59° C.) F: 5′-[…]-3′, R: 5′-[…]-3′; (hPMP70, 405, 60° C.) F: 5′-[…]-3′, R: 5′-[…]-3′; (mPMP70, 405, 60° C.) F: 5′-TTr[…]-3′, R: 5′-[…]-3′; (hALDR, 312, 56° C.) F: 5-[…]-3′, R: 5′-[…]-3′; (mALDR, 711, 57° C.) F: 5′-[…]-3′, R: 5′-[…]-3′; (hPMP69, 319, 60° C.) F: 5′-[…]-3′, R: 5-[…]-3′; (hAOX, 405, 60° C.) F: 5′-[…]-3′, R: 5′[…]-3′; (mAOX, 247, 60° C.) F: 5′-[…]r[…]-3′, R: 5′-[…]-3′; (hPPARα, 347, 60° C.) F: 5-[…]r[…]rCC-3′, R: 5′-[…]-3′; (mFPPARa, 268, 60° C.) F: 5′-GATTr[…]-TGAGG-3, R: 5′-[…]-3′; (hPex11α 658, 55° C.) F: 5-[…]-3′, R: 5′-[…]-3′; (mpex11α, 720, 55° C.) F: 5′-[…]r[…]-3′, R: 5′-[…]-3′; (β-Actin, 460, 62° C.) F:5′-[…]-3′, R: 5′-[…]-3, (glyceraldehyde 3-phosphate dehydrogenase (GAPDH), 528, 62° C.) F: 5′-[…]-3, R: 5′-[…]-3′. β-Actin and GAPDH primers were used for both human and mouse analyses.

The subject of the next assay is ALDR mRNA. Described as above. Format: cell-based. The following applies: normal and X-ALD fibroblasts, 5 mM, 2 days, relative to β-actin. On the procedure: as §1, §2, §3
Another assay has as its system PMP69. The description is as above. Format: cell-based. The following applies: X-ALD or normal fibroblasts, 5 mM, 2 days. On the procedure: as §1, §2, §3
For a further assay, the system named is PMP70. Described as above. It is filed as cell-based. Particulars: X-ALD or normal fibroblasts, 5 mM, 2 days. How it is done: as §1, §2, §3
In the next assay the test system is acyl-CoA oxidase (AOX). The description is as above. Format: cell-based. Particulars: 5 mM. How it is done: as §1, §2, §3
In a further assay the test system is PPARα. The assay is described as above. It is filed as cell-based. The following applies: human X-ALD fibroblasts, 5 mM, up to 10 days. On the procedure:
as §2
The PCR primers used are listed below. In the parentheses, h indicates human and m, mouse; this is followed by the gene name, product size and annealing temperature. For primer sequences, F is forward and R is reverse. […]

The next assay has as its system ΔF508-CFTR. The following applies: nasal epithelia cells, homozygous or heterozygous ΔF508-CFTR; cited from earlier work.

Consider `O=C(O)CCCc1ccccc1` [4-PBA, 4-Phenyl butyrate], for which, in the assay with ALDP [1], the “Detectable ALDP after treatment” value is “did not result in detectable levels of ALDP”. The ALDP expression level result in the assay with ALDP [2] is on record as “little, if any, effect”. For the same molecule, the “ALDR mRNA level” value in the assay with ALDR mRNA is “substantially increased; also recorded: substantial increase”. Besides, the PMP69 expression level entry in the assay with PMP69 is “little, if any, effect”. Moreover, the PMP70 expression level entry in the assay with PMP70 is reported as “little, if any, effect”. Moreover, the AOX expression entry in the assay with acyl-CoA oxidase (AOX) (2 days) is “unchanged; also recorded: not affected”; in the assay with acyl-CoA oxidase (AOX) (10 days) it was “remained unchanged”. Also, the PPARα expression result with PPARα is given as “unchanged”. Further, the “Effect on ΔF508-CFTR” value with ΔF508-CFTR was “rescue of ΔF508-CFTR from premature degradation”.
